Series [1] is described as follows: LD50 acute toxicity, ddy mice, single abdominal injection. The following applies: mouse, in vivo, ip, 5 ddy mice, 14 days observation, Behrens-Koerber's method. The text has this:
(§1) As used herein, the term "LD50 " denotes the acute toxicity. The term "ED50 " denotes the administered amount needed for reducing the volume of Sarcoma 180 solid tumours in animals to 50% of the corresponding tumour volume in control (untreated) animals. The term "WBC4000 " denotes the minimum dose of the drug needed to reduce the number of peripheral leucocytes to 4000/mm^3. A greater TI value results in a broader tolerance to the drug, which is advantageous for higher anti-tumour activity and decreased toxicity. The term "T" used herein denotes the average survival days of the test animals administered with the test compound. The term "C" denotes the average survival days of the control (untreated) animals. The term "OPD" denotes the dose of the drug resulting in the highest survival ratio. The term "ILS30 " denotes a 30% increase of life-span.
LD50, ED50 and WBC4000 were respectively determined as follows:
Each animal of the test group, consisting of 5 ddy mice, was administered once with a test compound by abdominal injection. […] To determine the LD50 value, Behrens-Koerber's method was applied.

In series [2] the test system is Sarcoma 180 solid tumour. The experiment in a line: ED50 against Sarcoma 180 solid tumour implanted in mice. It counts as in vivo, male mouse (ddy strain). To be noted: for (CI)c: (CI of test compound)/(CI of mitomycin C), CI = LD50/ED50; for ED50: Mus musculus, Sarcoma-180, iv, 168 h, i.v. (tail vein) 24 h after implantation, tumour volume at 7 days, dose for T/C of 0.5.
Excerpt: With regard to the so-called chemotherapeutic index viz. the CI value against sarcoma 180 solid tumour, expressed by the formula: […]
as §1
the term (CI)c denotes (CI of the test compound)/(CI of mitomycin C), and
5×10^6 sarcoma 180 solid tumor cells were abdominally implanted into ddy mice. 7 days after this, ascites cells were sampled. The cells were washed once with a sterilized physiological saline and were used to prepare a cell suspension containing 5×10^7 cells per ml of a sterilized physiological saline. On each occasion, 0.1 ml of the cell suspension was subcutaneously implanted under the skin of the right armpit of a male mouse (ddy strain; body weight 20±2 g). The test compound which was dissolved in a physiological saline with or without addition of Tween 80 was injected into the tail vein of each animal of a group consisting of 5 mice at a dose of 0.1-0.2 ml 24 hours after the implantation of the tumor cells.
The anti-tumor activity was determined in the following manner:
7 days after the implantation, the major axis (a) and the minor axis (b) of the tumour were measured to calculate a value of (a×b^2)/2 which corresponds to the volume of the tumour. The antitumour activity was expressed by the ratio of the volume of the tumour (T) of the group of animals administered with the test compound to the corresponding volume of tumours (C) of the untreated animals.
On graph paper, T/C was plotted on the ordinate using an arithmetic scale and the administered amount of test compound was plotted on the abscissa using a logarithmic scale. The relationship between the dose and T/C was shown by a straight line determined by the method of least squares, from which ED50 viz. a dose corresponding to T/C of 0.5 was obtained.

In series [3] the test system is lymphocytic Leukemia P-388. The experiment in a line: Anti-tumour activity against lymphocytic Leukemia P-388 in mice. It counts as in vivo, mouse, female of CDF strain. To be noted: for (ILSmax)c: (ILSmax of test compound)/(ILSmax of mitomycin C), ILS=(T-C)/C×100; for (TI)c: (TI of test compound)/(TI of mitomycin C), TI = OPD/dose which results in ILS30; for ED (optimal dose, highest survival) / ED (30% increase of life-span): Mus musculus, P388, ip, i.p. 24 h after implantation; for ED (optimal dose, highest survival): dose resulting in the highest survival ratio, 30 days, read-out: OPD; for ED (30% increase of life-span): read-out: Dose needed to give ILS30.
Excerpt: Also, their therapeutic indexes, expressed by the formula:
TI=(OPD)/(dose which results in ILS30),
against lymphocytic Leukemia P-388 and the maximum increased life spans (ILSmax), defined by the formula: […]
as §1
The experiment was carried out in the following manner. 1×10^6 lymphocytic Leukemia P-388 tumour cells were abdominally implanted into each mouse of a group consisting of 5 mice (body weight about 22 g; female of CDF strain). 24 hours after implantation, a physiological saline solution (0.2 ml) containing the test compound with or without addition of Tween 80 was abdominally given to the test animal.
Table 7 indicates anti-tumour activities of selected Compounds (I) against lyphocytic Leukemia P-388.

By LD50 is commonly meant the dose at which mortality reaches 50%. Lower therefore signals greater toxicity. By ED50 is commonly meant the midpoint of the dose-response relation. `COC(=O)[C@H]1CCCN1C(=O)SCCNC1=C(C)C(=O)C2=C(C1=O)[C@@H](COC(N)=O)[C@@]1(OC)[C@H]3N[C@H]3CN21` [Compound 32, 7-N--[2-((S)--2-methoxycarbonylpyrrolidino)carbonylthioethyl]mitomycin C] displayed an LD50 at 336 h in series [1] of 67.5 mg/kg. For the same compound, in series [2], the “(CI)c” value is 1.48 and it took a dose of 17.9 mg/kg to reach the 50% effect level (ED50). Further, in series [3], the “(ILSmax)c” value stood at 1.40; the “(TI)c” value is 2.14; the ED (optimal dose, highest survival) turned out to be 37.5 mg/kg; the ED (30% increase of life-span) was 1.67 mg/kg.

`CO[C@@]12[C@H](COC(N)=O)C3=C(C(=O)C(C)=C(NCCSC(=O)NCC(C)C)C3=O)N1C[C@@H]1N[C@@H]12` [Compound 24, 7-N--(2-isobutylaminocarbonylthioethyl)mitomycin C] came in with an LD50 at 336 h in series [1] of 22.5 mg/kg. In series [2], the “(CI)c” value was 0.89 and it took a dose of 9.9 mg/kg to reach the 50% effect level (ED50). Also, in series [3], the “(ILSmax)c” value came out at 1.26; the “(TI)c” value was 2.16; the ED (optimal dose, highest survival) came to 25 mg/kg; the ED (30% increase of life-span) came to 0.5 mg/kg.

Consider `CO[C@@]12[C@H](COC(N)=O)C3=C(C(=O)C(C)=C(NCCSC(=O)N4CCC(Cc5ccccc5)CC4)C3=O)N1C[C@@H]1N[C@@H]12` [Compound 41, 7-N--[2-(4-benzylpiperidino)carbonylthioethyl]mitomycin C], for which the 50% lethal dose (LD50) at 336 h in series [1] was determined as 41.3 mg/kg. For the same compound, in series [2], the “(CI)c” value is 1.37 and the ED50 came to 13.7 mg/kg.

In the case of `CNC(=O)[C@@H]1CCCN1C(=O)SCCNC1=C(C)C(=O)C2=C(C1=O)[C@@H](COC(N)=O)[C@@]1(OC)[C@H]3N[C@H]3CN21` [Compound 17, 7-N--[2-((S)--2-methylaminocarbonylpyrrolidino)-carbonylthioethyl]mitomycin C], in series [1], the LD50 at 336 h turned out to be 75 mg/kg. Moreover, in series [2], the “(CI)c” value was 1.32 and the ED50 came out at 21.7 mg/kg.

`CO[C@@]12[C@H](COC(N)=O)C3=C(C(=O)C(C)=C(NCCSC(=O)NCCC(=O)OCc4ccccc4)C3=O)N1C[C@@H]1N[C@@H]12` [Compound 3, 7-N--[2-(2-benzyloxycarbonylethyl)aminocarbonylthioethyl]mitomycin C] returned an LD50 at 336 h in series [1] above 100 mg/kg. For the same compound, in series [2], the “(CI)c” value is above 0.89 and the ED50 is 39.6 mg/kg.

Take `CO[C@@]12[C@H](COC(N)=O)C3=C(C(=O)C(C)=C(NCCSC(=O)N(C)C)C3=O)N1C[C@@H]1N[C@@H]12` [Compound 8, 7-N--(2-dimethylaminocarbonylthioethyl)mitomycin C]: the LD50 at 336 h in series [1] stood at 26.3 mg/kg. In series [2], the “(CI)c” value is on record as 0.65 and the ED50 amounted to 14.4 mg/kg.

Turning to `CO[C@@]12[C@H](COC(N)=O)C3=C(C(=O)C(C)=C(NCCSC(=O)N4CCOCC4)C3=O)N1C[C@@H]1N[C@@H]12` [Compound 33, 7-N--(2-morpholinocarbonylthioethyl)mitomycin C], the 50% lethal dose (LD50) at 336 h in series [1] worked out at 52.5 mg/kg. In series [2], the “(CI)c” value is given as 1.23 and it took a dose of 17.8 mg/kg to reach the 50% effect level (ED50).

In series [1], `CCCCNC(=O)SCCNC1=C(C)C(=O)C2=C(C1=O)[C@@H](COC(N)=O)[C@@]1(OC)[C@H]3N[C@H]3CN21` [Compound 28, 7-N--(2-n-butylaminocarbonylthioethyl)mitomycin C] gave an LD50 at 336 h of 43.8 mg/kg. For the same compound, in series [2], the “(CI)c” value worked out at 1.73 and the ED50 was found to be 9.9 mg/kg.

As for `CO[C@@]12[C@H](COC(N)=O)C3=C(C(=O)C(C)=C(NCCSC(=O)N(C)NC=O)C3=O)N1C[C@@H]1N[C@@H]12` [Compound 35, 7-N--[2-(1-methyl-2-formylhydrazino)carbonylthioethyl]mitomycin C], the LD50 at 336 h in series [1] was determined as 105 mg/kg. Moreover, in series [2], the “(CI)c” value is 1.30 and the ED50 was 27.9 mg/kg.

For the origin of these results see US4863935A, “Mitomycin compounds having useful anti-tumor activity” (priority 1986, dated 1989).
